Measurements: patent publication US9481630B2, “Ingenane-type diterpene compound, and pharmaceutical composition for treating or preventing viral infectious diseases containing same” (priority 2011, dated 2016)

Test system: NK92 cells
Experiment: IFN-γ production in NK92 cells, released IFN-γ in culture supernatant by ELISA
Format: cell-based, human
Settings: for effect on IFN-γ production: 10 nM, similar to the same dose of PMA (positive control)
Protocol: NK92 cells (human NK lymphoma) were obtained from American Type Culture Collection. NK92 cells were kept in α-MEM (Invitrogen, US) containing 20% fetal bovine serum (Invitrogen), 2 mM […], […] (Invitrogen), and were replenished with 100 U/mL IL-2 (Peprotech, US). NK92 cell culture was carried out in a culture medium at 37° C. under 5% CO2 humidity atmosphere. The amount of human IFN-γ was analyzed according to the protocol of a supplier using an assay kit (Endogen, Woburn, US).
In order to detect IFN-γ, 2×10^5 NK92 cell/mL was inoculated in a 48-well culture plate, and was cultured for 12 hours with each isolated compounds in an α-MEM medium containing 20% FBS and IL-2. The IFN-γ released in the culture supernatant was analyzed using an ELISA method. The absorbance was measured on a microplate reader and the treatment and the analysis for all the compounds were repeated twice. The cell toxicity of the compound-treated NK92 cells was evaluated through an MTT analysis.

Molecule	effect on IFN-γ production	activity for inducing IFN-γ production (5 μM)	other results
CCCCCCCCCCCC(=O)O[C@@]12C[C@@H](C)[C@]34C=C(C)[C@H](O)[C@@]3(O)[C@H](OC(=O)C(C)C(C)C)C(C)=C[C@H](C4=O)C1C2(C)C (stereo partly drawn) [Compound 1, 5-O-(2,3-dimethylbutanoyl)-13-O-dodecanoyl-20-O-deoxyingenol]	–	–	activity for inducing IFN-γ production (1.25 μM): had activity for inducing IFN-γ production
CCCCCCCCCC(=O)OCC1=C[C@@H]2C(=O)[C@]3(C=C(C)[C@H](O)[C@@]3(O)[C@@H]1O)[C@H](C)C[C@@H]1[C@H]2C1(C)C [Compound 3, 20-O-decanoylingenol]	–	–	activity for inducing IFN-γ production (100 nM): had activity for inducing IFN-γ production
CCCCC/C=C\C=C\C(=O)O[C@H]1C(C)=C[C@]23C(=O)[C@@H](C=C(COC(C)=O)[C@@H](O)[C@]12O)[C@H]1[C@@H](C[C@H]3C)C1(C)C [Compound 4, 20-O-acetylingenol-3-O-(2′E,4′Z) decadienate]	significant effects on the IFN-γ production	–	–
CCCCCCCCCCCC(=O)O[C@@]12C[C@@H](C)[C@]34C=C(C)[C@H](OC(=O)C(C)C(C)C)[C@@]3(O)[C@H](O)C(CO)=C[C@H](C4=O)[C@@H]1C2(C)C (stereo partly drawn) [Compound 6, 3-O-(2,3-dimethylbutanoyl)-13-O-dodecanoylingenol]	significant effects on the IFN-γ production	–	–
C[C@H](C/C=C/C(C)(C)O)[C@@H]1CC[C@]2(C)C3=C(CC[C@@]12C)[C@@]1(C)CC[C@H](O)C(C)(C)C1CC3 (stereo partly drawn) [Compound 8, (20R,23E)-eupha-8,23-diene-3b,25-diol]	–	had activity for inducing IFN-γ production	–
gansuiphorin A [Compound 5]	–	had activity for inducing IFN-γ production	–
